For series [1], the target named is T1, mouse AhR (mAhR) (Mus musculus, UniProt P30561).
T1 sequence (P30561 10-805): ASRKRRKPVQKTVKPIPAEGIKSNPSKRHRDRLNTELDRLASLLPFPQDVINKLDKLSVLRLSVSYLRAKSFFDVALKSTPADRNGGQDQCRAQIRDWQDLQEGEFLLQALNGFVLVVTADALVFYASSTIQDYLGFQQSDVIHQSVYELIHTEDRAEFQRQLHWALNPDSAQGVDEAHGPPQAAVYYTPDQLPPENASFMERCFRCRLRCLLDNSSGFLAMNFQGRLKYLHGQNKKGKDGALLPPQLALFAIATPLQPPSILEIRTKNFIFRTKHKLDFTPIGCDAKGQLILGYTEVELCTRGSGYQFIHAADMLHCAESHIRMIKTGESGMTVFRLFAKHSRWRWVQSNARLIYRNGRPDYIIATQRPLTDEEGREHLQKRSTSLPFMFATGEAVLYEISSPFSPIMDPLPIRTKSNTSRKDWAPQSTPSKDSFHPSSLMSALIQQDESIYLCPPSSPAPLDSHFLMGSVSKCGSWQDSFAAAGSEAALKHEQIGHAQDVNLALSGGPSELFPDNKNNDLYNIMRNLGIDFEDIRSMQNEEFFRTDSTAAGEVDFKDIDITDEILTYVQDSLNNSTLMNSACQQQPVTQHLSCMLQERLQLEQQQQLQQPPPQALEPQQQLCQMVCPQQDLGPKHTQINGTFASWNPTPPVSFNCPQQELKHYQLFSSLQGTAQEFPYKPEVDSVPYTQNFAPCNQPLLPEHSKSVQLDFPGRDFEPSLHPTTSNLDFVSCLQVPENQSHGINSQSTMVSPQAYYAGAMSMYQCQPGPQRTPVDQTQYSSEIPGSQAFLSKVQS
As to the kind of experiment: AhR-responsive luciferase reporter gene assay in stably transfected mouse H1L6.1c3 hepatoma cells. The series is classed as cell-based. A general note: A reporter such as luciferase makes a cellular process visible.
Procedure: (§1) AhR-dependent gene transcription was determined in (A) human HG2L6.1c.1 and (B) mouse H1L6.1c.3 hepatoma cell lines that contain a stably transfected AhR-responsive luciferase reporter gene. […] Luciferase activity (Relative Light Units (RLUs)) was normalized to the maximal induction observed with TCDD in each cell line. Values represent the mean ± SD of nine independent analyses.
(§2) Recombinant mouse (H1L6.1c3) and human (HG2L6.1c1) hepatoma cells containing a stably integrated AhR-responsive luciferase reporter gene plasmid (pGudLuc6.1) were plated (750,000 cells/well) in 96-well plates and incubated at 37 °C for 24 h prior to chemical treatment. Cells were incubated with DMSO (1% (v/v)) or the indicated concentration of test chemical in DMSO for 4 h, followed by visual inspection of the cells for toxicity, washing of the cells with phosphate-buffered saline (PBS), addition of 50 µL of passive lysis buffer (Promega) and lysis of cells for 20 min at room temperature with shaking [50]. Luciferase activity in each well was measured (integrating luminescence over 10 s with a 10 s delay) in an Orion microplate luminometer (Berthold Detection Systems, Bad Wildbad, Germany) following automatic injection of Promega stabilized luciferase reagent.
(§3) Analysis of statistical significance of differences between experimental values was conducted using Two-Way ANOVA and EC50s and IC50s were calculated using nonlinear regression (three parameter) analysis in GraphPad Prism v.7 (La Jolla, CA, USA).

Series [2] deals with T2, human AhR (hAhR) (Homo sapiens, UniProt P35869).
T2 sequence (P35869 11-848): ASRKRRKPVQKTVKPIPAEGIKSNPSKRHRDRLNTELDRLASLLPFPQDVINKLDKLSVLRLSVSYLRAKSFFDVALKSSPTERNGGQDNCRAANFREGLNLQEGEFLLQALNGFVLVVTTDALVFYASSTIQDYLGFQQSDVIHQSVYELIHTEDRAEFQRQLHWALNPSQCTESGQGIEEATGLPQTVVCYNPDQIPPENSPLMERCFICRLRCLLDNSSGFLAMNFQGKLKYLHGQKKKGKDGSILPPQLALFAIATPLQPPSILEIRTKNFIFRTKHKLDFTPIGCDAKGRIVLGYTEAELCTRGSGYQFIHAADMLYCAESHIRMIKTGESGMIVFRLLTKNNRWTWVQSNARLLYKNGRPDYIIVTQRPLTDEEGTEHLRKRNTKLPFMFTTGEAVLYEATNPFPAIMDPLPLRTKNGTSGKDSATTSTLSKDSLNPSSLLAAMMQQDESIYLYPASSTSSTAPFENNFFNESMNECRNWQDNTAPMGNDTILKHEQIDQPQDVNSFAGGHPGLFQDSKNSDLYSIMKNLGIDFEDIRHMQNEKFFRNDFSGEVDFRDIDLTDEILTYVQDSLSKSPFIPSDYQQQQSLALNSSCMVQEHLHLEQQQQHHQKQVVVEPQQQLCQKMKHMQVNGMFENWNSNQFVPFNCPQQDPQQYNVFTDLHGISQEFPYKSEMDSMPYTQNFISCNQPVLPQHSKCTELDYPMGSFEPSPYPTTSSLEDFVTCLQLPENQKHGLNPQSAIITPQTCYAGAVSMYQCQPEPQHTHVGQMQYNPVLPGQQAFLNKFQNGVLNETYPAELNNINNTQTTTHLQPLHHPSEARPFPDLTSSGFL
As to the kind of experiment: AhR-responsive luciferase reporter gene assay in stably transfected human HG2L6.1c1 hepatoma cells. Conditions: for maximal level of reporter gene induction: relative to TCDD.
Procedure: as §1, §2, §3

The target in series [3] is T3, mutant mAhR Q299R (Mus musculus, UniProt P30561, M324I/Q299R).
T3 construct: made in house; host or cells: in vitro transcription/translation, rabbit reticulocyte lysate
The series can be described thus: AhR DNA binding (gel retardation) assay, Q299R mAhR. The series is classed as biochemical.
Procedure: (§4) An aliquot of each incubation was mixed with [^32P]-labeled double-stranded oligonucleotide containing the AhR-ARNT DRE3 DNA binding site (a dioxin responsive element from the upstream region of the murine Cyp1a1 gene [9] and protein-DNA complexes resolved by gel retardation analysis as previously described [48, 49]. Gels were visualized using a FLA9000 Fujifilm Imager and protein-DNA complexes quantitated with Fujifilm MultiGauge software (FujiFilm Corporation, Valhalla, NY, USA).
as §3

Series [4] deals with T4, mutant mAhR L300I (Mus musculus, UniProt P30561, L300I/M324I).
T4 construct: made in house; host or cells: in vitro transcription/translation, rabbit reticulocyte lysate
As to the kind of experiment: AhR DNA binding (gel retardation) assay, L300I mAhR. Type of series: biochemical.
Procedure: as §4, §3

For series [5], the target named is T5, mutant mAhR I301V (Mus musculus, UniProt P30561, I301V/M324I).
T5 construct: made in house; host or cells: in vitro transcription/translation, rabbit reticulocyte lysate
As to the kind of experiment: AhR DNA binding (gel retardation) assay, I301V mAhR. The series is classed as biochemical.
Procedure: as §4, §3

In series [6] the target is T6, mutant mAhR V307A (Mus musculus, UniProt P30561, M324I/V307A).
T6 construct: made in house; host or cells: in vitro transcription/translation, rabbit reticulocyte lysate
As to the kind of experiment: AhR DNA binding (gel retardation) assay, V307A mAhR. Type of series: biochemical.
Procedure: as §4, §3

In series [7] the target is T7, mutant mAhR I324M (Mus musculus, UniProt P30561).
T7 construct: made in house; host or cells: in vitro transcription/translation, rabbit reticulocyte lysate
As to the kind of experiment: AhR DNA binding (gel retardation) assay, I324M mAhR. The series is classed as biochemical.
Procedure: as §4, §3

The target of series [8] is T8, mutant mAhR H326Y (Mus musculus, UniProt P30561, H326Y/M324I).
T8 construct: made in house; host or cells: in vitro transcription/translation, rabbit reticulocyte lysate
The series can be described thus: AhR DNA binding (gel retardation) assay, H326Y mAhR. Type of series: biochemical.
Procedure: as §4, §3

Series [9] addresses T9, mutant mAhR T343I (Mus musculus, UniProt P30561, M324I/T343I).
T9 construct: made in house; host or cells: in vitro transcription/translation, rabbit reticulocyte lysate
The series can be described thus: AhR DNA binding (gel retardation) assay, T343I mAhR. Type of series: biochemical.
Procedure: as §4, §3

For series [10], the target named is T10, mutant mAhR H351N (Mus musculus, UniProt P30561, H351N/M324I).
T10 construct: made in house; host or cells: in vitro transcription/translation, rabbit reticulocyte lysate
The series can be described thus: AhR DNA binding (gel retardation) assay, H351N mAhR. The series is classed as biochemical.
Procedure: as §4, §3
(§5) In vitro synthesized mutant mAhRs were incubated in the presence of
(§6) 45 nM-10,000 nM) for 2 h and DNA binding analyzed by the gel retardation assay as described in
(§7) 46 Materials and Methods. Values represent the mean ± SD of nine individual replicate analyses and
(§8) 47 EC50 values determined by nonlinear regression (three-parameter) analysis and graphical depictions

Series [11] has as its target T11, mutant mAhR S352N (Mus musculus, UniProt P30561, M324I/S352N).
T11 construct: made in house; host or cells: in vitro transcription/translation, rabbit reticulocyte lysate
As to the kind of experiment: AhR DNA binding (gel retardation) assay, S352N mAhR. Type of series: biochemical.
Procedure: as §4, §3, §5, §6, §7, §8

Series [12] addresses T12, mutant mAhR R355T (Mus musculus, UniProt P30561, M324I/R355T).
T12 construct: made in house; host or cells: in vitro transcription/translation, rabbit reticulocyte lysate
The series can be described thus: AhR DNA binding (gel retardation) assay, R355T mAhR. Type of series: biochemical.
Procedure: as §4, §3, §5, §6, §7, §8

The target of series [13] is T13, mutant mAhR A375V (Mus musculus, UniProt P30561, A375V/M324I).
T13 construct: made in house; host or cells: in vitro transcription/translation, rabbit reticulocyte lysate
The series can be described thus: biochemical.
Procedure: as §4, §3

The target in series [14] is T14, mutant hAhR T355A (Homo sapiens, UniProt P35869, T355A).
T14 construct: made in house; host or cells: in vitro transcription/translation, rabbit reticulocyte lysate
The series can be described thus: AhR DNA binding (gel retardation) assay, T355A hAhR. Type of series: biochemical.
Procedure: as §4, §3, §5, §6, §7, §8

The target in series [15] is T15, mutant hAhR V381A (Homo sapiens, UniProt P35869, V381A).
T15 construct: made in house; host or cells: in vitro transcription/translation, rabbit reticulocyte lysate
The series can be described thus: AhR DNA binding (gel retardation) assay, V381A hAhR. Type of series: biochemical.
Procedure: as §4, §3, §5, §6, §7, §8

For series [16], the target named is T16, mutant hAhR Y332H (Homo sapiens, UniProt P35869, Y332H).
T16 construct: made in house; host or cells: in vitro transcription/translation, rabbit reticulocyte lysate
As to the kind of experiment: AhR DNA binding (gel retardation) assay, Y332H hAhR. Type of series: biochemical.
Procedure: as §4, §3, §5, §6, §7, §8

In series [17] the test system is T17, wild-type mAhR.
T17 construct: contains a full-length mAhR cDNA in which the mouse PASB LBD was replaced; expressed in transfected cells; host or cells: COS-1
As to the kind of experiment: Transient transfection luciferase reporter assay in COS-1 cells, wild-type mAhR. The series is classed as cell-based, mouse. The settings on record: COS-1 cells cotransfected with wild-type mAhR; TCDD 10 nM, IR 1 µM, 18–20 h.
Procedure: (§9) Cells were lysed, and lysates were analyzed for firefly luciferase activity. […] Luciferase activity (relative light units; RLU) was measured and corrected for background (DMSO) and normalized to mAhR TCDD levels. Values represent the mean ± SD of nine individual replicate analyses.
(§10) COS-1 cells were plated at a density of 75,000 cells/well and allowed to attach overnight in a 24-well plate. Cells were transiently transfected (per well) with the following amounts per well: 2 µL Lipofectamine 2000 (Invitrogen, Carlsbad, CA, USA), 20 ng wild-type (mβAhR/pcDNA3) or mutant AhR expression plasmids (in pcDNA3.1), 20 ng of mβARNT/pcDNA3 or pcDNA3.1(+) and 200 ng pGudLuc6.1 [17].

Series [18] deals with T18, mutant A349T mAhR.
T18 construct: contains a full-length mAhR cDNA in which the mouse PASB LBD was replaced; expressed in transfected cells; host or cells: COS-1
As to the kind of experiment: Transient transfection luciferase reporter assay in COS-1 cells, A349T mAhR. Conditions: COS-1 cells cotransfected with A349T mAhR; TCDD 10 nM, IR 1 µM, 18–20 h. The series is classed as cell-based, mouse.
Procedure: as §9, §10

Series [19] relates to mAhR A375V. Conditions: A375V versus high-affinity mAhR ref 27, 28; cited from earlier work.
In series [20] the test system is mAhR A375V. Conditions: A375V versus high-affinity mAhR ref 27, 28; cited from earlier work. The source holds these as a separate data set.
In series [21] the target is mutant mAhR A349T (Mus musculus, UniProt P30561, A349T/M324I). As to the kind of experiment: biochemical. Also noted: made in house; host or cells: in vitro transcription/translation, rabbit reticulocyte lysate.
Procedure: as §4, §3
In series [22] the target is mAhR (Mus musculus, UniProt P30561, M324I). As to the kind of experiment: biochemical. Also noted: made in house; host or cells: in vitro transcription/translation, rabbit reticulocyte lysate (Promega TNT).
Procedure: (§11) (A) The amount of inducible protein-DNA complex at each chemical concentration was quantitated and values normalized to the amount of complex formed with a maximal activating concentration of TCDD (20 nM). […] Values represent the mean ± SD of nine individual replicate analyses.
as §4, §3
For series [23], the target named is T19, hAhR (Homo sapiens, UniProt P35869). The series can be described thus: biochemical. Also on record: only occur within the full length hAhR and not in the mAhR-hAhRLBD chimera; made in house; host or cells: in vitro transcription/translation, rabbit reticulocyte lysate.
Procedure: as §11, §4, §3
Series [24] deals with T19, hAhR. The settings on record: COS-1 cells cotransfected with hAhR; TCDD 10 nM, IR 1 µM, 18–20 h.
Procedure: as §9, §10
The target in series [25] is mAhR-hAhRLBD (Mus musculus; Homo sapiens, UniProt P30561+P35869). The settings on record: COS-1 cells cotransfected with mAhR-hAhRLBD; TCDD 10 nM, IR 1 µM, 18–20 h.
Procedure: as §9, §10
In series [26] the test system is AhR. Conditions: human hepatoma cells ref 23; cited from earlier work.
For series [27], the system named is AhR. The settings on record: mouse hepatoma cells ref 23; cited from earlier work.
The mark [28] stands for this setting: mouse H1L6.1c3 hepatoma cells, 4 h, mean ± SD of nine analyses, read-out: EC50 to stimulate luciferase reporter gene expression, Mouse.

Where two headings read alike, the source gives them in different places.

T12 sequence (P30561 10-805 M324I/R355T limits assumed): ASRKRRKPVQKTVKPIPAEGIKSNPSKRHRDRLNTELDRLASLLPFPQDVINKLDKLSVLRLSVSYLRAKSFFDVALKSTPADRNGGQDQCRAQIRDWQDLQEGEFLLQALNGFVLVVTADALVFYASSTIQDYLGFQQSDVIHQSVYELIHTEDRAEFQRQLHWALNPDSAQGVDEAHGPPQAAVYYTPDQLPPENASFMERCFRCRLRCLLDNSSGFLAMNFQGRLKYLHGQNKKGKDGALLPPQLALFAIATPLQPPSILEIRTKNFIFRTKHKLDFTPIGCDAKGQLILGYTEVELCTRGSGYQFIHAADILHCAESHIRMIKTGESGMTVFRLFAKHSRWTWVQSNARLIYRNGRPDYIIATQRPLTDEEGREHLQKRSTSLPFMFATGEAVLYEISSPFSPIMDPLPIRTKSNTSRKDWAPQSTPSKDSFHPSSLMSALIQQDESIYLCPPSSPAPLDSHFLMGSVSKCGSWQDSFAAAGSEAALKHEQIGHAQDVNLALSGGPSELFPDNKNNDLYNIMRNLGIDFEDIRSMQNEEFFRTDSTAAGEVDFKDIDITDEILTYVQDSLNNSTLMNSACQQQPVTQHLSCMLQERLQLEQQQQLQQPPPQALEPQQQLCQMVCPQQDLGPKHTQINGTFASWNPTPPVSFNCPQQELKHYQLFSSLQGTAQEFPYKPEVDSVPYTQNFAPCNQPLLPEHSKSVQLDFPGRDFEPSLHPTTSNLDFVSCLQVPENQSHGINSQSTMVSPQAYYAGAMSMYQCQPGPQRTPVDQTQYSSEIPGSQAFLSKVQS
T12 sequence (P53762 whole entry partner): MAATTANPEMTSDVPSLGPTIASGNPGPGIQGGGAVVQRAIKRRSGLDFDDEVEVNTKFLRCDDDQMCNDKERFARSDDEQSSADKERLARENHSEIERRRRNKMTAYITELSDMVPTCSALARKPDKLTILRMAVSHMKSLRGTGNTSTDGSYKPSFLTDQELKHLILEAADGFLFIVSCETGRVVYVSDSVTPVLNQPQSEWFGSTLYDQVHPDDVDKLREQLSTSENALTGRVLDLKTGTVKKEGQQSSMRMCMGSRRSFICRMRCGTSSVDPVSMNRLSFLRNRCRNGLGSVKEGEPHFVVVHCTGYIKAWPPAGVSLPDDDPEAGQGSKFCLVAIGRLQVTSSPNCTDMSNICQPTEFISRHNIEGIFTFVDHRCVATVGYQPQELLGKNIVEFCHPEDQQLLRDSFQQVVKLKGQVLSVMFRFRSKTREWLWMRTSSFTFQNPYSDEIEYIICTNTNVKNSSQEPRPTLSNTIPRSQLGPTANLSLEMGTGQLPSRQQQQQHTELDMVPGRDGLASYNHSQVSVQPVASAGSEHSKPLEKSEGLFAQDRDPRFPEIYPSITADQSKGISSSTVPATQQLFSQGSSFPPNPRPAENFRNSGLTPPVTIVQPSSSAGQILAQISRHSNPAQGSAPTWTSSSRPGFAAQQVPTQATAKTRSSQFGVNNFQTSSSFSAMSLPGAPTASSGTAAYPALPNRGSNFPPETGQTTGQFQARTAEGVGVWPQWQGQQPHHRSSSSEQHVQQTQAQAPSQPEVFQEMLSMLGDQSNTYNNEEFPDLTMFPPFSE
T15 sequence (P35869 11-848 V381A): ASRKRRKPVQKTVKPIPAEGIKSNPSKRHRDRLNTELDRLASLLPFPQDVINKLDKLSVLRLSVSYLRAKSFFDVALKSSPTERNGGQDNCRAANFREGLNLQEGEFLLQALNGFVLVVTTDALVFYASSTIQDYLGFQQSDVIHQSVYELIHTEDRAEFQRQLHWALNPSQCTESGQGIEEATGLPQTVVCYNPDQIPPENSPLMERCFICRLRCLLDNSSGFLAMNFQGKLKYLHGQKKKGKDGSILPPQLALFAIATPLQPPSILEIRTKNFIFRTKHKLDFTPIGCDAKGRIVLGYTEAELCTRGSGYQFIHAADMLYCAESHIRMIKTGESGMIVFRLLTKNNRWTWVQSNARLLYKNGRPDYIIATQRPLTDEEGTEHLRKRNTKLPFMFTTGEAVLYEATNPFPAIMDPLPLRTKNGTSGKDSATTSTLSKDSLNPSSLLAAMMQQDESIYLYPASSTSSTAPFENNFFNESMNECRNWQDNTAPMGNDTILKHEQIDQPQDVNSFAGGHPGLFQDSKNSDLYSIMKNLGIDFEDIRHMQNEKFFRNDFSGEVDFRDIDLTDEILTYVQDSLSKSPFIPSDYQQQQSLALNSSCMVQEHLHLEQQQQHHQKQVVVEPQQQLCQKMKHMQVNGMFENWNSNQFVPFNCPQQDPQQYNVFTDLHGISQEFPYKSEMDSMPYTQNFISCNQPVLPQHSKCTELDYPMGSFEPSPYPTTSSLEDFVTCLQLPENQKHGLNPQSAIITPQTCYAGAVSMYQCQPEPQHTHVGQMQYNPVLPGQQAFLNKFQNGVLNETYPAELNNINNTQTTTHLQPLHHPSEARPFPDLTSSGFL
T15 sequence (P27540 whole entry partner): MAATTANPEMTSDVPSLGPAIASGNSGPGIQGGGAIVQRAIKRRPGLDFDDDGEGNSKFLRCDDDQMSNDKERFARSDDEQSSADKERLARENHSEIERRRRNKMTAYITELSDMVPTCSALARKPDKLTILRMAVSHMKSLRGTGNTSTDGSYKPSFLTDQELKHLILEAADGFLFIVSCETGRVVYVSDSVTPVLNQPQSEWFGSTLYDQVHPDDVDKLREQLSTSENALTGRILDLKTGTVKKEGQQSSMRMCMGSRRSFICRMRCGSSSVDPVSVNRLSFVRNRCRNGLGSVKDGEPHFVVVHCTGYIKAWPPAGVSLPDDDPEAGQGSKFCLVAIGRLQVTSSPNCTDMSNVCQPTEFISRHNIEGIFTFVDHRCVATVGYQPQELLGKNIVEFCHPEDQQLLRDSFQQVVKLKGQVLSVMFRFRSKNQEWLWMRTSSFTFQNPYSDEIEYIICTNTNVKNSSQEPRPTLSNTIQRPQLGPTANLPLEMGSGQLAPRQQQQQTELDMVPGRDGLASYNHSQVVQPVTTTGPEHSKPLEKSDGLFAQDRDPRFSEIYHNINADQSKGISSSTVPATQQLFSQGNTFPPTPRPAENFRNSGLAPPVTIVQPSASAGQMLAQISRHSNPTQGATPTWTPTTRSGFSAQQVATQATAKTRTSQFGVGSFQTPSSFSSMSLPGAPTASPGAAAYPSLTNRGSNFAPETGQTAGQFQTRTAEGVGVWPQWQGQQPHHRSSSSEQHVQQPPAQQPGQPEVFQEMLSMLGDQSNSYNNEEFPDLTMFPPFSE
T3 sequence (P30561 10-805 Q299R/M324I limits assumed): as the sequence (P30561 10-805 M324I/R355T limits assumed) above, with Q290R, T346R counted along it
T3 sequence (P53762 whole entry partner): as the sequence (P53762 whole entry partner) above
T9 sequence (P30561 10-805 M324I/T343I limits assumed): as the sequence (P30561 10-805 M324I/R355T limits assumed) above, with T334I, T346R counted along it
T9 sequence (P53762 whole entry partner): as the sequence (P53762 whole entry partner) above

For orientation: EC50 means the concentration needed to bring the measured effect to its halfway point. As to `Cc1ccc2cc3c(ccc4ccccc43)c3c2c1CC3` [3-MC, 3-Methylcholanthrene], the EC50 in series [1] (setting [28]) worked out at 1.49 ± 0.01 nM; in [2], 14.6 ± 3.51 nM. Further, the “maximal level of reporter gene induction” value in series [2] (human HG2L6.1c1 cells) was “maximal induction was not observed”.
Take `O=c1cc(-c2ccccc2)oc2ccc3ccccc3c12` [BNF, β-naphthoflavone]: the concentration giving a half-maximal response (EC50) in [1] (setting [28]) amounted to 1.84 ± 1.14 nM. Also, the “maximal level of reporter gene induction” value in [2] (human HG2L6.1c1 cells) was “maximal induction was not observed”.
The compound `Clc1cc2c(cc1Cl)Oc1cc(Cl)c(Cl)cc1O2` [TCDD, 2,3,7,8-tetrachlorodibenzo-p-dioxin] had an EC50 at 4 h in [1] (mouse) of 0.027 ± 0.01 nM. The concentration for a half-maximal effect (EC50) in series [3] was 2.29 ± 0.12 nM; in [4] it was 1.42 ± 0.61 nM; in series [5], 2.09 ± 0.01 nM; in series [6], 4.25 ± 0.12 nM; in [7] it was 2.92 ± 0.14 nM; in series [8], 0.62 ± 0.52 nM. Further, the EC50 in series [9] is 1.79 ± 0.12 nM; in series [10], 0.73 ± 0.04 nM; in series [11], 4.34 ± 0.26 nM; in series [12] it was 0.94 ± 0.06 nM; in [13] it was 5.25 ± 0.56 nM; in series [14], 2.32 ± 0.82 nM. The EC50 in series [15] was 2.99 ± 0.65 nM; in [16] it was 0.59 ± 0.6 nM; in series [21], 3.86 ± 1.06 nM; in [2], 0.26 ± 0.07 nM; in [22] it was 2.48 ± 0.54 nM; in series [23] it was 2.46 ± 0.9 nM. Besides, in [17], the “induction of luciferase activity, TCDD versus IR” value was “comparable to IR”. Moreover, the “maximal induction compared with wild-type mAhR” value in series [18] is “significantly repressed compared to wild-type mAhR”. For the same compound, the “lower affinity of the mAhR after mutation A375V” value in [19] is ~ 10 fold. In addition, in [20], the “lower activation potency of the mAhR after mutation A375V” value is ~ 10 fold.
Regarding `O=C1Nc2ccccc2/C1=C1/Nc2ccccc2C1=O` [IR, indirubin], the EC50 in [1] (mouse) worked out at 15.6 ± 3.52 nM. For the same compound, the “induction of luciferase activity, IR versus TCDD” value in series [18], in series [24] and in series [25] was “significantly more efficacious inducer than TCDD” throughout. Besides, the “maximal induction compared with wild-type mAhR” value in series [18] is reported as “significantly increased above that of wild-type mAhR”. In series [26], the “greater potency than TCDD as inducer of AhR-dependent gene expression” value is on record as 10 fold. In [27], the “less potent than TCDD as inducer of AhR-dependent gene expression” value is given as ~ 10 fold. In addition, the “more potent than TCDD, reporter gene induction” value in series [2] (human HG2L6.1c1 cells) is recorded as ~ 7 fold.
